Measured values from paper PMC2074590 (British Journal of Cancer, 1996).
“Also recorded” adds a separate entry of the source.

What was measured:
[1] = tested on: advanced breast cancer resistant to tamoxifen; experiment: Tumour response to therapy, UICC criteria; assay type: in vivo, human; parameters: key to Response to 182780: PD: progressive disease; NC: no change; PR: partial response
Method: Bridsh Journal of Cancer (1996) 74, 300-308 ? […] The agent was administered as a monthly depot intramuscular injection. […] The study was approved by the ethics committees of each clinical centre. Patients were eligible for the study if they were post- menopausal and age less than 81 years, with histologically verified breast cancer. […] Patients were excluded if they had serious intercurrent disease, a WHO performance status of greater than 2, and a life expectancy of less than 3 months or had received previous cytotoxic chemotherapy for advanced breast cancer. […] Patients 5-19 received 250 mg month-1 i.m. from the outset. […] Tumour response to therapy was evaluated according to UICC criteria (Hayward et al., 1977). To qualify for the 'no change' category, tumour growth had to stabilise for more than 6 months (Howell et al., 1988; Robertson et al., 1989). Body weight was recorded at each monthly review in the majority of patients. […] The procedure was applied after solid base clean up of a diethyl ether/hexane extract of serum. The study limit of quantification was 0.68 ng ml-'. […] Gonadotrophins follicle-stimulating hormone and lutenising hormone (FSH and LH) and SHBG were measured by RIA in the Regional Radioimmunoassay Laboratory of the University Hospital of South Manchester. Prolactin was measured by immunoradiometric assay using reagents supplied by Netria. Total cholesterol levels were determined enzymatically using a commercially available reagent (Diamed, Switzerland). Triglyceride levels were determined by the glyceryl phosphate oxidase-peroxidase-antiperox- idase method using a commercially available kit (Boehringer Mannheim, Germany). High-density lipoprotein (HDL) cholesterol levels were measured after pretreatment of the serum samples with buffered magnesium phosphotungstate, which selectively precipitates low-density lipoprotein (LDL) cholesterol, very low-density lipoprotein (VLDL) cholesterol and chylomicrons, leaving HDL cholesterol in the super- natant. Serum levels of LDL cholesterol were calculated using the Friedewald equation (Friedewald et al., 1972). Endometrial assessment Endometrial thickness was measured in transverse section by transabdominal ultrasound using a Siemens Sonoline SL2 with a 3.5 MHz sector probe. Baseline and repeat scans at 3-6 monthly intervals were performed in five patients. […] Pharmacokinectic data were analysed using para- metric statistics. Data relating to body weight, serum gonadotrophin, SHBG and lipid levels were analysed using non-parametric statistics. The null hypothesis was rejected at a probability level of P<0.05. […] However, samples were not available between day 2 and day 8.

endometrium = experiment: Endometrial assessment (transabdominal ultrasound thickness, histology); assay type: in vivo, human
Method: Bridsh Journal of Cancer (1996) 74, 300-308 ? […] The agent was administered as a monthly depot intramuscular injection. […] The study was approved by the ethics committees of each clinical centre. Patients were eligible for the study if they were post- menopausal and age less than 81 years, with histologically verified breast cancer. […] Patients were excluded if they had serious intercurrent disease, a WHO performance status of greater than 2, and a life expectancy of less than 3 months or had received previous cytotoxic chemotherapy for advanced breast cancer. […] Patients 5-19 received 250 mg month-1 i.m. from the outset. […] Tumour response to therapy was evaluated according to UICC criteria (Hayward et al., 1977). […] Body weight was recorded at each monthly review in the majority of patients. […] The study limit of quantification was 0.68 ng ml-'. […] Gonadotrophins follicle-stimulating hormone and lutenising hormone (FSH and LH) and SHBG were measured by RIA in the Regional Radioimmunoassay Laboratory of the University Hospital of South Manchester. Prolactin was measured by immunoradiometric assay using reagents supplied by Netria. Total cholesterol levels were determined enzymatically using a commercially available reagent (Diamed, Switzerland). […] Serum levels of LDL cholesterol were calculated using the Friedewald equation (Friedewald et al., 1972). […]

[2] = Body weight at monthly review; assay type: in vivo, human
Method: Bridsh Journal of Cancer (1996) 74, 300-308 ? […] The agent was administered as a monthly depot intramuscular injection. […] The study was approved by the ethics committees of each clinical centre. Patients were eligible for the study if they were post- menopausal and age less than 81 years, with histologically verified breast cancer. […] Patients were excluded if they had serious intercurrent disease, a WHO performance status of greater than 2, and a life expectancy of less than 3 months or had received previous cytotoxic chemotherapy for advanced breast cancer. […] Patients 5-19 received 250 mg month-1 i.m. from the outset. […] Tumour response to therapy was evaluated according to UICC criteria (Hayward et al., 1977). To qualify for the 'no change' category, tumour growth had to stabilise for more than 6 months (Howell et al., 1988; Robertson et al., 1989). Body weight was recorded at each monthly review in the majority of patients. […] The procedure was applied after solid base clean up of a diethyl ether/hexane extract of serum. The study limit of quantification was 0.68 ng ml-'. […] Gonadotrophins follicle-stimulating hormone and lutenising hormone (FSH and LH) and SHBG were measured by RIA in the Regional Radioimmunoassay Laboratory of the University Hospital of South Manchester. Prolactin was measured by immunoradiometric assay using reagents supplied by Netria. Total cholesterol levels were determined enzymatically using a commercially available reagent (Diamed, Switzerland). Triglyceride levels were determined by the glyceryl phosphate oxidase-peroxidase-antiperox- idase method using a commercially available kit (Boehringer Mannheim, Germany). High-density lipoprotein (HDL) cholesterol levels were measured after pretreatment of the serum samples with buffered magnesium phosphotungstate, which selectively precipitates low-density lipoprotein (LDL) cholesterol, very low-density lipoprotein (VLDL) cholesterol and chylomicrons, leaving HDL cholesterol in the super- natant. Serum levels of LDL cholesterol were calculated using the Friedewald equation (Friedewald et al., 1972). […]

breast cancer cells = tested on: breast cancer cells; parameters: method as in Wakeling and Bowler, 1987, 1988; settings: ref Wakeling and Bowler, 1987, 1988; cited from earlier work
[3] = tested on: Ki67, ER, PgR, pS2 in primary breast cancer; settings: short-acting propylene glycol-based formulation, daily i.m. for 1 week before surgery, ref DeFriend et al., 1994b, Nicholson et al.; cited from earlier work

In the case of `C[C@]12CC[C@@H]3c4ccc(O)cc4C[C@@H](CCCCCCCCC[S+]([O-])CCCC(F)(F)C(F)(F)F)[C@H]3[C@@H]1CC[C@@H]2O` (stereo partly drawn) [ICI 182780, 7a-[9(4,4,5,5,pentafluoropentyl-sulphinyl)nonyl]oestra-1 ,3,5,(10)-triene-3,17,B-diol], the “Median duration of response” value ([1]; 13 responding patients) is reported as 25 months, the Partial response rate ([1]; 19 patients) is reported as 37% and the Progression rate ([1]; 19 patients) is reported as 31%. For the same compound, the “Patients responding (partial response + no change)” value ([1]; 19 patients, after progression on tamoxifen) was 69%, the “No change response rate” value ([1]; 19 patients, stabilisation for more than 6 months) was 32% and the Duration of response ([1]; NC patient with 61 months adjuvant tamoxifen (A61, = patient 15), from Table III) was at least 23 months. The “Patients still in remission and continuing treatment” value ([1]; after 30-33 months) was “five”, the “Association between duration of treatment with tamoxifen and subsequent response” value ([1]; in vivo) was “no association” and the “Responses in women who progressed while receiving tamoxifen for advanced breast cancer” value ([1]; in vivo) was “six of the nine”. For the same compound, the “Responses in women who relapsed after tamoxifen as adjuvant therapy” value ([1]; in vivo) was “seven of the ten”, the “Number of patients with progression” value ([1]; of 19 patients) was 6 patients and the “Response to 182780” value ([1]; patient 1 (donor kappa)) was “PD”. For the same compound, the Duration of response ([1]; patient 1, PD) was under 2 months, the “Response to 182780” value ([1]; patient 2 (donor eta)) was “NC” and the Duration of response ([1]; patient 2, NC) was 29 months. The “Response to 182780” value ([1]; patient 3 (donor mu)) was “PR”, the Duration of response ([1]; patient 3, PR) was 12 months and the “Response to 182780” value ([1]; patient 4 (donor lambda)) was “PD”. The Duration of response ([1]; patient 4, PD) was under 2 months, the “Response to 182780” value ([1]; patient 5 (donor sigma)) was “PR” and the Duration of response ([1]; patient 5, PR) was 8 months. For the same compound, the “Response to 182780” value ([1]; patient 6 (donor delta)) was “PR”, the Duration of response ([1]; patient 6, PR) was 3 months and the “Response to 182780” value ([1]; patient 7 (donor gamma)) was “PD”. For the same compound, the Duration of response ([1]; patient 7, PD) was under 2 months, the “Response to 182780” value ([1]; patient 8 (donor theta)) was “PR” and the Duration of response ([1]; patient 8, PR) was 25 months. The “Response to 182780” value ([1]; patient 9 (NT)) was “PD”, the Duration of response ([1]; patient 9, PD) was under 2 months and the “Response to 182780” value ([1]; patient 10 (donor iota)) was “PR”. For the same compound, the Duration of response ([1]; patient 10, PR, + = continuing) was at least 33 months, the “Response to 182780” value ([1]; patient 11 (donor epsilon)) was “PD” and the Duration of response ([1]; patient 11, PD) was under 2 months. For the same compound, the “Response to 182780” value ([1]; patient 12 (donor nu)) was “NC”, the Duration of response ([1]; patient 12, NC, + = continuing) was at least 33 months and the “Response to 182780” value ([1]; patient 13 (donor tau)) was “PD”. The Duration of response ([1]; patient 13, PD) was under 2 months, the “Response to 182780” value ([1]; patient 14 (donor xi)) was “PR” and the Duration of response ([1]; patient 14, PR, + = continuing) was at least 32 months. The “Response to 182780” value ([1]; patient 15 (donor omicron)) was “NC”, the “Response to 182780” value ([1]; patient 16 (donor rho)) was “PR” and the Duration of response ([1]; patient 16, PR) was 25 months. For the same compound, the “Response to 182780” value ([1]; patient 17 (donor zeta)) was “NC”, the Duration of response ([1]; patient 17, NC) was 9 months and the “Response to 182780” value ([1]; patient 18 (donor beta)) was “NC”. For the same compound, the Duration of response ([1]; patient 18, NC, + = continuing) was at least 30 months, the “Response to 182780” value ([1]; patient 19 (donor pi)) was “NC” and the Duration of response ([1]; patient 19, NC, + = continuing) was at least 30 months. For the same compound, the “Time to objective disease progression in unresponsive patients” value ([1]; six patients unresponsive de novo) was at most 2 months, the Endometrial histology (endometrium; one patient, hysterectomy after 18 months on treatment) was “atrophic post-menopausal pattern with cystic change” and the “Endometrial thickness / effect on endometrium” value (endometrium; serial ultrasound in five responding patients, up to 15 months) was “no apparent effect; also recorded: remained unchanged”. For the same compound, the “Mean body weight (s.d.)” value ([2]; after 10 months, n = 9) was 64.5 ± 17.2 kg, the “Mean body weight (s.d.)” value ([2]; after 16 months, n=9) was 64.2 ± 18.3 kg and the “Change in body weight during treatment” value ([2]; baseline mean 63.8 kg (n=13)) was “no significant changes”. For the same compound, the “Potency as inhibitor of cell growth in vitro relative to tamoxifen” value (breast cancer cells) was “up to two orders of magnitude more potent than tamoxifen”, the “Expression of ER, PgR and pS2 vs pretreatment samples” value [3] was “reduced or absent expression” and the “Tumour proliferation (Ki67 expression) vs pretreatment samples” value [3] was “reduced proliferation”.
